The values below come from ChEMBL document CHEMBL5291721, “A preclinical secondary pharmacology resource illuminates target-adverse drug reaction associations of marketed drugs” (Nat Commun, 2023).

Assay [1] concerns the target Delta-type opioid receptor (Homo sapiens, UniProt P41143).
Assay [2] has as its target Mu-type opioid receptor (Homo sapiens, UniProt P35372).
Assay [3] addresses T1, 5-hydroxytryptamine receptor 2C (Homo sapiens, UniProt P28335).
T1 sequence (P28335 whole entry): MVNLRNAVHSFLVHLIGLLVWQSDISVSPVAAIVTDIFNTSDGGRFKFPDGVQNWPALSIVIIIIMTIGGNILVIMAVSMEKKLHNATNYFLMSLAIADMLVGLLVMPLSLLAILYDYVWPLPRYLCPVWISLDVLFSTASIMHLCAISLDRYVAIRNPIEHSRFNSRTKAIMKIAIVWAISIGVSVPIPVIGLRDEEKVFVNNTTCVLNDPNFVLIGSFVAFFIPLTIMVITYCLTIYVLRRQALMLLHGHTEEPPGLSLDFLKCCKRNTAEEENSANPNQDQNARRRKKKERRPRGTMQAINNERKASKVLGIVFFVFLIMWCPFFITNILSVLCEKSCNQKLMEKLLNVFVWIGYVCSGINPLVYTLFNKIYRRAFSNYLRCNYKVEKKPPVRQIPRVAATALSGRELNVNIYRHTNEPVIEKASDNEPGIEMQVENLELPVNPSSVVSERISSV

Assay [4] deals with T2, B2 bradykinin receptor (Homo sapiens, UniProt P30411).
T2 sequence (P30411 whole entry): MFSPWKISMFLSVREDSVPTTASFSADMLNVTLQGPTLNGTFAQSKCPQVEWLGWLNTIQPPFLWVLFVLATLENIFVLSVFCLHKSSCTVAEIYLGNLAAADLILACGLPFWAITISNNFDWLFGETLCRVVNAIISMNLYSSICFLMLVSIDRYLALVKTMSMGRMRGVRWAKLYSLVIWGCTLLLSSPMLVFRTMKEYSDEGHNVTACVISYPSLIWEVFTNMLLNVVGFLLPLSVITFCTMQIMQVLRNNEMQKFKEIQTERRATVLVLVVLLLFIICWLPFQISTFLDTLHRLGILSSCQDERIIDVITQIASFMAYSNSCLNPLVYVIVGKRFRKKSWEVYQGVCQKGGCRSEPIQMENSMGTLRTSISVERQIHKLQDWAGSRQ

Assay [5] concerns the target T3, Muscarinic acetylcholine receptor M2 (Homo sapiens, UniProt P08172).
T3 sequence (P08172 whole entry): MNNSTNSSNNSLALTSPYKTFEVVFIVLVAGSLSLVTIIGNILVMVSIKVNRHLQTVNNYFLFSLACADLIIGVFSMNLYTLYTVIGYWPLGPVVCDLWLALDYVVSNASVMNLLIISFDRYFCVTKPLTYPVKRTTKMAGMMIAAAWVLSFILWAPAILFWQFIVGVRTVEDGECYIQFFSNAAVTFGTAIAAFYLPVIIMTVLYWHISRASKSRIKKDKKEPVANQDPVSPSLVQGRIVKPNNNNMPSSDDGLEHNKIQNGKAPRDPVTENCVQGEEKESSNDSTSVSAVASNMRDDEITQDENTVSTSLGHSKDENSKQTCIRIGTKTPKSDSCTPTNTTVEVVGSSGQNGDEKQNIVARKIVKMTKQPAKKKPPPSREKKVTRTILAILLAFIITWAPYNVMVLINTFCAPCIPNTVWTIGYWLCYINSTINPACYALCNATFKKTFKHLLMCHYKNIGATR
In kind it is functional, cell-based.

For assay [6], the target named is Histamine H3 receptor (Homo sapiens, UniProt Q9Y5N1).
Assay [7] addresses Sodium-dependent noradrenaline transporter (Homo sapiens, UniProt P23975).
The target in assay [8] is Histamine H2 receptor (Homo sapiens, UniProt P25021). In kind it is functional, cell-based.
The target in assay [9] is T4, Endothelin-1 receptor (Homo sapiens, UniProt P25101).
T4 sequence (P25101 whole entry): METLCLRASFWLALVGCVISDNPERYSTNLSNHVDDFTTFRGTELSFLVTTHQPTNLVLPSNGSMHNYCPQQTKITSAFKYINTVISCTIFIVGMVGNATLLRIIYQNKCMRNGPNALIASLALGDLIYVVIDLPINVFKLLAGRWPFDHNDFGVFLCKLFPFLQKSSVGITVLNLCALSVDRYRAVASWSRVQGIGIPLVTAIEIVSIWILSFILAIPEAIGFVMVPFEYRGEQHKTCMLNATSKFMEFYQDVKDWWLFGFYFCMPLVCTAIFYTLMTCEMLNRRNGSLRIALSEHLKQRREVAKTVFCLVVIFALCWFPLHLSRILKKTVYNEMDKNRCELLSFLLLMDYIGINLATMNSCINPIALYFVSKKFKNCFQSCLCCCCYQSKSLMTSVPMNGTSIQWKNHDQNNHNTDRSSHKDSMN

The target in assay [10] is T5, Alpha-1A adrenergic receptor (Homo sapiens, UniProt P35348).
T5 sequence (P35348 whole entry): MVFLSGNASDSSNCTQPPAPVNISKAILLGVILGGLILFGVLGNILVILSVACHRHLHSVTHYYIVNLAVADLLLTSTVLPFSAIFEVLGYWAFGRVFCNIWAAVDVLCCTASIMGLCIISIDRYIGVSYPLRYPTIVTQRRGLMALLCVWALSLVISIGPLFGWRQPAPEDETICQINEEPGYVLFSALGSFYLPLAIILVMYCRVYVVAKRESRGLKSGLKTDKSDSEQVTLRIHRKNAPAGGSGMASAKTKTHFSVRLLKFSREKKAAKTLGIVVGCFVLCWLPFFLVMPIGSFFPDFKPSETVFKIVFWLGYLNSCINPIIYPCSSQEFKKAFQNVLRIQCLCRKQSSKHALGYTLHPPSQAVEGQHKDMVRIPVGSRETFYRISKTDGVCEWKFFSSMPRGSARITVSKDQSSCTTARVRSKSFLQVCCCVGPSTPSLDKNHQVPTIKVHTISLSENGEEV
In kind it is functional, cell-based.
Also: assay procedure not described here.

Sequence of Mu-type opioid receptor (P35372 whole entry): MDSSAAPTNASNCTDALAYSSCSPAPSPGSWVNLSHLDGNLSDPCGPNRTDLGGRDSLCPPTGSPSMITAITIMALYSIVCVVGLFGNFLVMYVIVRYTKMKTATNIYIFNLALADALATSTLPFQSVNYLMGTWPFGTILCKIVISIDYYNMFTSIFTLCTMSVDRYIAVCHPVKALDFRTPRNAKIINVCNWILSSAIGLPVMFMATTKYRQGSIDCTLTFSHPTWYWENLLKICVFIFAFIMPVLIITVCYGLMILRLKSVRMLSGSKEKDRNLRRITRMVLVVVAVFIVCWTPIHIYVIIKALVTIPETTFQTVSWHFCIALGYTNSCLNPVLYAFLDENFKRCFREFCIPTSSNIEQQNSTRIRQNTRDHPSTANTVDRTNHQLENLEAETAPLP
Sequence of Sodium-dependent noradrenaline transporter (P23975 whole entry): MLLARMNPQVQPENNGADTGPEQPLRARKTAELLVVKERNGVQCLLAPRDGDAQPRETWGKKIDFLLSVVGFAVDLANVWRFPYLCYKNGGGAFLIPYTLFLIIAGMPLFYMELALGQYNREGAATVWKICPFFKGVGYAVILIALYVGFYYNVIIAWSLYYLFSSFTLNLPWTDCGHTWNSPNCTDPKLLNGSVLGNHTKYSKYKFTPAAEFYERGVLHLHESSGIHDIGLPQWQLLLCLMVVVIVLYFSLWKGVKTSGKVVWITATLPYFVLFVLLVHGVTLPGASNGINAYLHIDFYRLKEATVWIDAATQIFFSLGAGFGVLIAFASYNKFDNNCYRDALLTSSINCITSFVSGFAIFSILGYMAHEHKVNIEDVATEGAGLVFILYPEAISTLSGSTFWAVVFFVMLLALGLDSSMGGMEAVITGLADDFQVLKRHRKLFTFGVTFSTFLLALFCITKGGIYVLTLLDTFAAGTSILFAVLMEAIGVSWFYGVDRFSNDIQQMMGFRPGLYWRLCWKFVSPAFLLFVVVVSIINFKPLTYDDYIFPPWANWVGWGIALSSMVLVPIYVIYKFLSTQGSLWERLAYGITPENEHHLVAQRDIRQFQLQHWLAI
Sequence of Histamine H3 receptor (Q9Y5N1 whole entry): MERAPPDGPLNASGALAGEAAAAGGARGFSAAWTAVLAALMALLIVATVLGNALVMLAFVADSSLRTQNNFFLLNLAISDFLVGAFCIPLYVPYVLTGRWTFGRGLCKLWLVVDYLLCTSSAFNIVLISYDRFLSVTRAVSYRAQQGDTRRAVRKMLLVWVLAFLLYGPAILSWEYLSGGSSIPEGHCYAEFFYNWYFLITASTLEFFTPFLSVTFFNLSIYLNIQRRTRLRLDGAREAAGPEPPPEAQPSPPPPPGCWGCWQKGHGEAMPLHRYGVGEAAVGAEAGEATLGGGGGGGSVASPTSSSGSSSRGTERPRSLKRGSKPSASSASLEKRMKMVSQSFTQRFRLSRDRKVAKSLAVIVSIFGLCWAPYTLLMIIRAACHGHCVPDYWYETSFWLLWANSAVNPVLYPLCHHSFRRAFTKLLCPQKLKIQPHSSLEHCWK
Sequence of Delta-type opioid receptor (P41143 whole entry): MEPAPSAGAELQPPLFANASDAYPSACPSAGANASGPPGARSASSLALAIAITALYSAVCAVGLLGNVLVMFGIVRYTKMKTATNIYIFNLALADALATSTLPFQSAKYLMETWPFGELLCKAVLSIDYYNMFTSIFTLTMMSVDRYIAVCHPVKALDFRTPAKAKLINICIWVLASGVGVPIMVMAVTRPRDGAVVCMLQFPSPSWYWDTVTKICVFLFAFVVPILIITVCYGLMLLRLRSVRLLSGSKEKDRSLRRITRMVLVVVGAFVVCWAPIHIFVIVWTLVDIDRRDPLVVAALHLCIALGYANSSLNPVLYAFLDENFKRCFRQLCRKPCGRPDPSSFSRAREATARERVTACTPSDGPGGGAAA
Sequence of Histamine H2 receptor (P25021 whole entry): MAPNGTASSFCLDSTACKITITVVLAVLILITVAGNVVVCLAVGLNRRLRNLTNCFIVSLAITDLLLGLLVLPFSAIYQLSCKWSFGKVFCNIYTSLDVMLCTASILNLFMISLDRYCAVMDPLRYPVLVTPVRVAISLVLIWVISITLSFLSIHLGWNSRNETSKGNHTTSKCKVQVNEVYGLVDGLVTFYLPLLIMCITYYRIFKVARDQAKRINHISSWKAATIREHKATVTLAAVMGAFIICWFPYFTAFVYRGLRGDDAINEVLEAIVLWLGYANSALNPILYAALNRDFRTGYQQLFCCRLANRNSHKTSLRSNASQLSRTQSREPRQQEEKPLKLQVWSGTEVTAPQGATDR

For `OCC(O)COc1ccc(Cl)cc1` (centres undefined), the AC50 was more than 30 µM in assay [1]; more than 30 µM in [2]; more than 30 µM in assay [3]; more than 10 µM in assay [4]; more than 10 µM in assay [5]; more than 10 µM in assay [6]. In addition, the AC50 in assay [7] and in [8] was more than 10 µM in each case.
As for `CN(Cc1ccc(C(C)(C)C)cc1)Cc1cccc2ccccc12` [BUTENAFINE], the half-maximal activity concentration (AC50) is more than 30 µM in [1]; more than 30 µM in assay [2]; more than 30 µM in [3]; more than 10 µM in [4]; more than 10 µM in assay [5]; more than 10 µM in assay [6]. The AC50 in [7] and in [8] was more than 10 µM in each case.
Consider `CC(=O)OCC1=C(C(=O)O)N2C(=O)[C@@H](NC(=O)CSc3ccncc3)[C@H]2SC1` [CEPHAPIRIN], for which the AC50 is more than 30 µM in assay [1]; more than 30 µM in assay [2]; more than 30 µM in [3]; more than 10 µM in [4]; more than 10 µM in [5]; more than 10 µM in assay [7]. This molecule also registered an AC50 in assay [8] of more than 10 µM.
As for `Nc1nc(Cl)nc2c1ncn2[C@@H]1O[C@H](CO)[C@@H](O)[C@@H]1F` [CLOFARABINE], the AC50 was more than 30 µM in assay [1]; more than 30 µM in assay [2]; more than 30 µM in assay [3]; more than 30 µM in assay [4]; more than 10 µM in assay [5]; more than 30 µM in assay [6]. Also, the AC50 in [7] and in assay [8] was more than 30 µM each time.
Take `CC1CC(OC(=O)C(O)c2ccccc2)CC(C)(C)C1` (centres undefined) [CYCLANDELATE]: the AC50 was more than 30 µM in assay [1]; more than 30 µM in assay [2]; more than 30 µM in assay [3]; more than 10 µM in assay [4]; more than 10 µM in assay [5]; more than 10 µM in assay [6]. The AC50 in [7] was more than 30 µM; in assay [8], more than 10 µM.
Regarding `CN(C)CCOC(=O)C(c1ccccc1)C1(O)CCCC1` (centres undefined) [CYCLOPENTOLATE], the AC50 is more than 30 µM in assay [1]; more than 30 µM in assay [2]; more than 30 µM in assay [3]; more than 10 µM in assay [4]; 0.29 µM in [5]; more than 30 µM in assay [7]. For the same molecule, the AC50 in assay [8] is more than 30 µM.
With `COC(=O)[C@H]1[C@H]2C[C@@H]3c4[nH]c5ccccc5c4CCN3C[C@H]2C[C@@H](OC(=O)c2cc(OC)c(OC)c(OC)c2)[C@@H]1OC` [DESERPIDINE], the AC50 in [1] was more than 30 µM; in [2], 8.3 µM; in [3], more than 30 µM; in assay [4], more than 30 µM; in assay [5] it was more than 10 µM; in assay [7], more than 10 µM. In addition, the AC50 in assay [8] was more than 10 µM.
With `CCC1(C)CC(=O)NC1=O` (centres undefined) [ETHOSUXIMIDE], the AC50 is more than 30 µM in assay [1]; more than 30 µM in assay [2]; more than 30 µM in [3]; more than 10 µM in [4]; more than 10 µM in [5]; more than 10 µM in [7]. The AC50 in [8] is more than 30 µM.
On to `CC(=O)N1CCN(c2ccc(OCC3COC(Cn4ccnc4)(c4ccc(Cl)cc4Cl)O3)cc2)CC1` (centres undefined) [KETOCONAZOLE], for which the AC50 was more than 10 µM in assay [1]; more than 30 µM in assay [2]; more than 30 µM in assay [3]; more than 10 µM in [4]; more than 10 µM in [6]; more than 30 µM in [7]. The molecule further displayed an AC50 in [8] of more than 10 µM.
For `CCOC(=O)O[C@]1(C(=O)COC(=O)CC)CC[C@H]2[C@@H]3CCC4=CC(=O)C=C[C@]4(C)[C@H]3[C@@H](O)C[C@@]21C` [PREDNICARBATE], the AC50 in [1] is more than 30 µM; in assay [2], more than 30 µM; in [3] it was more than 30 µM; in assay [4], more than 10 µM; in assay [5] it was more than 10 µM; in assay [7], more than 10 µM. The molecule further had an AC50 in assay [8] of more than 10 µM.
As for `CCC(=O)[C@@]1(C)[C@H](C)C[C@H]2[C@@H]3CCC4=CC(=O)C=C[C@]4(C)[C@H]3[C@@H](O)C[C@@]21C` [RIMEXOLONE], the AC50 in assay [1] was more than 30 µM; in [2], more than 30 µM; in [3] it was more than 30 µM; in assay [4] it was more than 10 µM; in [5], more than 10 µM; in assay [7], more than 10 µM. Moreover, the AC50 in assay [8] was more than 10 µM.
Turning to `Cc1cccc(Nc2ccncc2S(=O)(=O)NC(=O)NC(C)C)c1` [TORSEMIDE], the AC50 in [1] is more than 30 µM; in assay [2], more than 30 µM; in assay [3], more than 30 µM; in [4] it was more than 30 µM; in assay [5], more than 10 µM; in [7] it was more than 10 µM. Besides, the AC50 in [8] was more than 10 µM.
For the molecule `CC1=C(/C=C/C(C)=C/C=C/C(C)=C/C(=O)Oc2c(C)c(C)c3c(c2C)CCC(C)(CCCC(C)CCCC(C)CCCC(C)C)O3)C(C)(C)CCC1` (centres undefined) [TRETINOIN TOCOFERIL], the AC50 in assay [9], in assay [1], in assay [3], in [4], in assay [10] and in [5] was more than 30 µM each time. Further, the AC50 in assay [6], in assay [7] and in [8] was more than 30 µM each time.
Consider `CN(C)CCOCC(=O)NC12CC3CC(CC(C3)C1)C2` [TROMANTADINE], for which the AC50 in assay [9], in assay [1], in assay [3], in assay [4], in assay [10] and in assay [5] was more than 30 µM in each case. The AC50 in assay [6], in assay [7] and in assay [8] was more than 30 µM throughout.
As to `CCCCCCCC(=O)CC[C@@H]1[C@@H](C/C=C\CCCC(=O)O)[C@@H](O)C[C@H]1O` [UNOPROSTONE], the AC50 in assay [9], in assay [1], in assay [3], in [4], in assay [10] and in assay [5] was more than 30 µM in each case. Moreover, the AC50 in [6], in assay [7] and in assay [8] was more than 30 µM each time.
In the case of SITOSTEROLS, the AC50 in assay [9], in assay [1], in [3], in assay [4], in assay [10] and in [5] was more than 30 µM each time. Moreover, the AC50 in [6], in assay [7] and in [8] was more than 30 µM throughout.

What is called AC50 is the midpoint of the concentration-response curve, whichever way the signal moves. Low values mean activity at low concentration, high ones activity only at high concentration.
